Article PMC8589628, “Characterization and Antimicrobial Studies of Iturin-Like and Bogorol-Like Lipopeptides From Brevibacillus spp. Strains GI9 and SKDU10” (Frontiers in Microbiology, 2021)
Peptide text beside a SMILES is read from it. * marks the point of attachment. X1 = CC(C)CCCCCCCCCCCCC(=O)*

How the values were obtained:
[1] = tested on: C. parapsilosis 450030; assay: MIC, microtiter plate dilution assay, clinical strain; type: cell-based; details: YMB, 37°C, OD 600 nm after 48 h
Method: (§1) Brevibacillus sp. strains GI-9 and SKDU10 were known to produce class IId bacteriocins identified as laterosporulins a ([Singh et al., 2012]; [Baindara et al., 2016]). Both strains were grown on nutrient agar (NA, Himedia, India). All test strains used in this study were obtained from Microbial Type Culture Collection and Gene bank (MTCC), Chandigarh, India. Clinical Candida strains were obtained from the National Culture Collection of Pathogenic Fungi (NCCPF), PGIMER, Chandigarh, India, and all strains were grown on recommended media.
(§2) The antimicrobial activity of HPLC purified compounds was determined against various test strains including S. aureus MTCC 1430, Vibrio cholera MTCC 3904, Bacillus subtilis MTCC 121, Listeria monocytogenes MTCC 839, C. albicans MTCC 183, C. albicans MTCC 1637, C. albicans MTCC 227, C. tropicalis MTCC 184, C. glabrata MTCC 3019, and C. inconspicua MTCC 1074. Antimicrobial activity was also tested against clinical Candida strains and phytopathogenic fungi viz. Fusarium moniliforme MTCC 158, Alternaria brassicicola MTCC 2102 and Colletotrichum acutatum MTCC 1037. Bacterial and Candida test strains were grown in NB and yeast malt broth (YMB), respectively. Fungal test strains were grown in potato dextrose broth (PDB). Minimum inhibitory concentrations (MICs) of purified compounds were evaluated against test organisms by using a microtiter plate dilution assay. Mid-log-phase test strains (5 × 10^5 CFU/ml) were incubated in a 96-well plate with different concentrations of the lipopeptides for 24–48 h at 37°C (final volume of 200 μl). OD was measured at 600 nm after 24 and 48 h for bacteria and yeast, respectively, using an ELISA microplate reader (Thermo Scientific, United States). MIC against phytopathogenic fungi was determined using the 96-well microtiter plate method ([Sharma et al., 2020]).

[2] = tested on: C. albicans MTCC 183; assay: MIC, microtiter plate dilution assay; type: cell-based, Candida albicans; details: YMB, 5 × 10^5 CFU/ml, 37°C, OD 600 nm after 48 h
Method: as §2

[3] = tested on: F. moniliforme MTCC 158; assay: MIC against phytopathogenic fungi, 96-well microtiter plate method; type: cell-based, Fusarium moniliforme; details: PDB
Method: as §2

[4] = tested on: C. albicans MTCC 227; assay: MIC, microtiter plate dilution assay; type: cell-based, Candida albicans; details: YMB, 5 × 10^5 CFU/ml, 37°C, OD 600 nm after 48 h
Method: as §2

[5] = tested on: C. albicans MTCC 1637; assay: MIC, microtiter plate dilution assay; type: cell-based, Candida albicans; details: YMB, 5 × 10^5 CFU/ml, 37°C, OD 600 nm after 48 h
Method: as §2

[6] = tested on: C. kefyr 410004; assay: MIC, microtiter plate dilution assay, clinical strain; type: cell-based; details: YMB, 37°C, OD 600 nm after 48 h
Method: as §1, §2

[7] = tested on: C. haemulonii 470125; assay: as above; type: cell-based; details: YMB, 37°C, OD 600 nm after 48 h
Method: as §1, §2

[8] = tested on: C. auris 470126; assay: as above; type: cell-based; details: YMB, 37°C, OD 600 nm after 48 h
Method: as §1, §2

[9] = tested on: C. tropicalis 420024; assay: as above; type: cell-based; details: YMB, 37°C, OD 600 nm after 48 h
Method: as §1, §2

[10] = tested on: C. tropicalis MTCC 184; assay: MIC, microtiter plate dilution assay; type: cell-based; details: YMB, 5 × 10^5 CFU/ml, 37°C, OD 600 nm after 48 h
Method: as §2

[11] = tested on: C. glabrata MTCC 3019; assay: MIC, microtiter plate dilution assay; type: cell-based; details: YMB, 5 × 10^5 CFU/ml, 37°C, OD 600 nm after 48 h
Method: as §2

[12] = tested on: C. haemulonii MTCC 2766; assay: MIC, microtiter plate dilution assay; type: cell-based; details: YMB, 5 × 10^5 CFU/ml, 37°C, OD 600 nm after 48 h
Method: as §2

[13] = tested on: C. albicans 400054; assay: MIC, microtiter plate dilution assay, clinical strain; type: cell-based, Candida albicans; details: YMB, 37°C, OD 600 nm after 48 h
Method: as §1, §2

[14] = tested on: S. aureus MTCC 1430; type: cell-based, Staphylococcus aureus; details: MTCC 1430, 24 h
Method: as §2

Molecule	MIC value [1] [µg/mL]	MIC value [2] [µg/mL]	MIC value [3] [µg/mL]	MIC value [4] [µg/mL]	MIC value [5] [µg/mL]	MIC value [6] [µg/mL]	MIC value [7] [µg/mL]	MIC value [8] [µg/mL]	MIC value [9] [µg/mL]	MIC value [10] [µg/mL]	MIC value [11] [µg/mL]	MIC value [12] [µg/mL]	MIC value [13] [µg/mL]	MIC value [14] [µg/mL]
Dhb-Tyr-Orn-Ile-Val-Val-Lys-Val-Leu-Asp-Val-Glu [BLL, bogorol like lipopeptide purified from Brevibacillus sp. strain SKDU10; 12 amino acids and C17 hydroxy fatty acid side chain]	290 to 310	150 to 170	490 to 510	300 to 310	250 to 260	190 to 210	245 to 255	140 to 160	300 to 320	290 to 310	290 to 300	340 to 360	240 to 260	
CC(C)CCCCCCCCCCCCC(=O)N[C@H](C(=O)NCC(=O)N[C@@H](C)C(=O)N[C@@H](CO)C(=O)N[C@@H](Cc1c[nH]cn1)C(=O)N[C@@H](CCC(N)=O)C(=O)N[C@@H](CCC(N)=O)C(=O)O)[C@@H](C)O [ILL] (X1-TGASHQQ-OH; N-terminus assumed)														150 to 170
